Reference: article PMC8213057, “Targeting ALK2: An Open Science Approach to Developing Therapeutics for the Treatment of Diffuse Intrinsic Pontine Glioma” (Journal of Medicinal Chemistry, 2020)

How the values were obtained:
CK1g2 = CK1g2 (Homo sapiens, UniProt P78368); experiment: biochemical; settings: read-out: % enzyme activity, 1 μM; Run 1, Run 2
TBK1 = molecular target: T1, TBK1 (Homo sapiens, UniProt Q9UHD2); settings: 1 μM; Run 1, Run 2
T1 sequence (Q9UHD2 1-729): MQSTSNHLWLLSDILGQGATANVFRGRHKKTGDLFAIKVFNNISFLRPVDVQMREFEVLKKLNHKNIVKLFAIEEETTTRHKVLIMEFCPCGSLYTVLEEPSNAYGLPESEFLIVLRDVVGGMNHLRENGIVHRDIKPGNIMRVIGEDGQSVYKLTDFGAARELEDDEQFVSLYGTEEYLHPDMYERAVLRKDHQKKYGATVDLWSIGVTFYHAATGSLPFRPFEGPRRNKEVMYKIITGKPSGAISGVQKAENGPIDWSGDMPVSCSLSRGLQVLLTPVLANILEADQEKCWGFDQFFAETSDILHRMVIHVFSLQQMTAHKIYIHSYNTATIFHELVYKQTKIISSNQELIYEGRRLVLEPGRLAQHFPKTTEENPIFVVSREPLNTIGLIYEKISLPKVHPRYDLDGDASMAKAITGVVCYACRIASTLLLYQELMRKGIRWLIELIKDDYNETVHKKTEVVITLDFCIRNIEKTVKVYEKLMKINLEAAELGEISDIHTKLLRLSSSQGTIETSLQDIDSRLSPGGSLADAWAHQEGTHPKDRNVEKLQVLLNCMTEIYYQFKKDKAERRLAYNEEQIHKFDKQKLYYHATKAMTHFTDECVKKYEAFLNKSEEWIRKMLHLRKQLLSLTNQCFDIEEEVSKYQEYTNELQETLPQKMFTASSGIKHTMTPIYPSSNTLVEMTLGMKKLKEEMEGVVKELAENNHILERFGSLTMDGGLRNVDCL

MEK1 = MEK1 (Homo sapiens, UniProt Q02750); experiment: biochemical; settings: read-out: % enzyme activity, 1 μM; Run 1, Run 2
MST2/STK3 = molecular target: T2, MST2/STK3 (Homo sapiens, UniProt Q13188); settings: 1 μM; Run 1, Run 2
T2 sequence (Q13188 1-491): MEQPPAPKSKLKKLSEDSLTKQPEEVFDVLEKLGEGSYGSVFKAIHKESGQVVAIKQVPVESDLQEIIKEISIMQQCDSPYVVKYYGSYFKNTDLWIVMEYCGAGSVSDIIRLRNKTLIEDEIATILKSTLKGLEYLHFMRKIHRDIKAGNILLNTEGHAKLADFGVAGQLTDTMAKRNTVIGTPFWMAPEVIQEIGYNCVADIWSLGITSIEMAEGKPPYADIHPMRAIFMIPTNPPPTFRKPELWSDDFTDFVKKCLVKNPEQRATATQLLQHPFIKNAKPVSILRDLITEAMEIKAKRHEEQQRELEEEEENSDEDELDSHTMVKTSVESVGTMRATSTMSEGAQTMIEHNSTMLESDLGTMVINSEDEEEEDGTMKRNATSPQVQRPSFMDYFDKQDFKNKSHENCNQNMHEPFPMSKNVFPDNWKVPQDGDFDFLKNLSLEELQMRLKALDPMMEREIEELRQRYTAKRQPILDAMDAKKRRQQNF

NEK6 = NEK6 (Homo sapiens, UniProt Q9HC98); settings: 1 μM; Run 1, Run 2
ROCK1 = ROCK1 (Homo sapiens, UniProt Q13464); settings: 1 μM; Run 1, Run 2
PHKg2 = molecular target: T3, PHKg2 (Homo sapiens, UniProt P15735); experiment: biochemical; settings: read-out: % enzyme activity, 1 μM; Run 1, Run 2
T3 sequence (P15735 1-406): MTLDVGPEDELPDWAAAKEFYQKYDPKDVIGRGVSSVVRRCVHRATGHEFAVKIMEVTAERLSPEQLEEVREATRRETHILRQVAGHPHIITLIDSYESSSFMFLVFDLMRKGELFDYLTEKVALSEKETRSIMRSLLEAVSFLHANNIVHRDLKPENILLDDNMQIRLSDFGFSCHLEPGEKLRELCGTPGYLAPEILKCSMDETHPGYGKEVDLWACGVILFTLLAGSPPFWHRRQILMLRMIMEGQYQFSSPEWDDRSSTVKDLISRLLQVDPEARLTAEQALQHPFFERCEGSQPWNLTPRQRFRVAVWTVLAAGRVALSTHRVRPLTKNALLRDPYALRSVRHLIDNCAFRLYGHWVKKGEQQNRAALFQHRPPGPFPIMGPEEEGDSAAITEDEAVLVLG

MSK2/RPS6KA4 = MSK2/RPS6KA4 (Homo sapiens, UniProt O75676); experiment: biochemical; settings: read-out: % enzyme activity, 1 μM; Run 1, Run 2
c-MET = c-MET (Homo sapiens, UniProt P08581); experiment: biochemical; settings: read-out: % enzyme activity, 1 μM; Run 1, Run 2
PBK/TOPK = molecular target: T4, PBK/TOPK (Homo sapiens, UniProt Q96KB5); experiment: biochemical; settings: read-out: % enzyme activity, 1 μM; Run 1, Run 2
T4 sequence (Q96KB5 1-322): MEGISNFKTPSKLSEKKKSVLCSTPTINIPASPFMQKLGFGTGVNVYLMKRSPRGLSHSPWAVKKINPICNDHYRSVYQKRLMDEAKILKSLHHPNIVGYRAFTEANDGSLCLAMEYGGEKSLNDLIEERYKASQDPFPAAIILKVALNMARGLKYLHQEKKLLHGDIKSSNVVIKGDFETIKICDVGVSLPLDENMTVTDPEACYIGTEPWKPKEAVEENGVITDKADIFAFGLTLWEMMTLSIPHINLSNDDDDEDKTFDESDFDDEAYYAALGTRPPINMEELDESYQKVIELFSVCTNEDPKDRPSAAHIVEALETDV

PKCb1 = PKCb1 (Homo sapiens, UniProt P05771); experiment: biochemical; settings: read-out: % enzyme activity, 1 μM; Run 1, Run 2
PAK6 = PAK6 (Homo sapiens, UniProt Q9NQU5); experiment: biochemical; settings: read-out: % enzyme activity, 1 μM; Run 1, Run 2
CDK17/cyclin Y (PCTK2) = CDK17/cyclin Y (PCTK2) (Homo sapiens, UniProt Q00537); settings: 1 μM; Run 1, Run 2
FGR = FGR (Homo sapiens, UniProt P09769); experiment: biochemical; settings: read-out: % enzyme activity, 1 μM; Run 1, Run 2
c-Src = c-Src (Homo sapiens, UniProt P12931); experiment: biochemical; settings: read-out: % enzyme activity, 1 μM; Run 1, Run 2
HIPK3 = HIPK3 (Homo sapiens, UniProt Q9H422); settings: 1 μM; Run 1, Run 2

PKCb1, sequence (P05771 whole entry): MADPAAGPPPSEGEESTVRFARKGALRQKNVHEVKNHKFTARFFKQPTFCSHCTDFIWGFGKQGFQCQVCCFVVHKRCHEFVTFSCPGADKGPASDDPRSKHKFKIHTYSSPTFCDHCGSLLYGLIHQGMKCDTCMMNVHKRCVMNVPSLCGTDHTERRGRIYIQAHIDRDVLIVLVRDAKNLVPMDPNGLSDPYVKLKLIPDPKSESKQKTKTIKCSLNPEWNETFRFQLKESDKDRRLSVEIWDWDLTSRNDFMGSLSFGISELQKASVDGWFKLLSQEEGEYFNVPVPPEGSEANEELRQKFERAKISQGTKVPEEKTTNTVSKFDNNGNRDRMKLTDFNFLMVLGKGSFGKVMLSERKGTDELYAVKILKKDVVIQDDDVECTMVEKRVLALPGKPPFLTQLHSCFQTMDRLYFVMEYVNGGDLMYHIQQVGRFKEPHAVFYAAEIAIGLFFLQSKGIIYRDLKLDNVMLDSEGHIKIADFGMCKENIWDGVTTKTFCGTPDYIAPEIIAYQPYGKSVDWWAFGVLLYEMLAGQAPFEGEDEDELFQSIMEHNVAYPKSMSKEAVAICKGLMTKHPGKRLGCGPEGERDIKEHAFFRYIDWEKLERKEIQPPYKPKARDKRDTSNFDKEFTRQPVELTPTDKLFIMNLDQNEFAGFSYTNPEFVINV
FGR, sequence (P09769 whole entry): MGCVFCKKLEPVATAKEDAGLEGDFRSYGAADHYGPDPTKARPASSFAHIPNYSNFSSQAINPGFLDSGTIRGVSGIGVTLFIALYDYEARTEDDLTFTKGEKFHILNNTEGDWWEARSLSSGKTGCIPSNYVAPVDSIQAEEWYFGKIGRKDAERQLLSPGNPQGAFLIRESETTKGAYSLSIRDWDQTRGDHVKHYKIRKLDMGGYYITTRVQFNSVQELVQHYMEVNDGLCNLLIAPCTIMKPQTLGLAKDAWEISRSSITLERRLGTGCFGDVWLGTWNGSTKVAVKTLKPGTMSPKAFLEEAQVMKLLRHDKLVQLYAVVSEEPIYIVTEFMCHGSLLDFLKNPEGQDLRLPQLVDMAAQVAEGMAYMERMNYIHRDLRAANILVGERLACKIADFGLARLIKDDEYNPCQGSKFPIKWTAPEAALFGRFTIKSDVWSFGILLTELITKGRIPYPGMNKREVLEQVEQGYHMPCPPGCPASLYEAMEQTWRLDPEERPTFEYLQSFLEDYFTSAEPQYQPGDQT
c-MET, sequence (P08581 25-1390): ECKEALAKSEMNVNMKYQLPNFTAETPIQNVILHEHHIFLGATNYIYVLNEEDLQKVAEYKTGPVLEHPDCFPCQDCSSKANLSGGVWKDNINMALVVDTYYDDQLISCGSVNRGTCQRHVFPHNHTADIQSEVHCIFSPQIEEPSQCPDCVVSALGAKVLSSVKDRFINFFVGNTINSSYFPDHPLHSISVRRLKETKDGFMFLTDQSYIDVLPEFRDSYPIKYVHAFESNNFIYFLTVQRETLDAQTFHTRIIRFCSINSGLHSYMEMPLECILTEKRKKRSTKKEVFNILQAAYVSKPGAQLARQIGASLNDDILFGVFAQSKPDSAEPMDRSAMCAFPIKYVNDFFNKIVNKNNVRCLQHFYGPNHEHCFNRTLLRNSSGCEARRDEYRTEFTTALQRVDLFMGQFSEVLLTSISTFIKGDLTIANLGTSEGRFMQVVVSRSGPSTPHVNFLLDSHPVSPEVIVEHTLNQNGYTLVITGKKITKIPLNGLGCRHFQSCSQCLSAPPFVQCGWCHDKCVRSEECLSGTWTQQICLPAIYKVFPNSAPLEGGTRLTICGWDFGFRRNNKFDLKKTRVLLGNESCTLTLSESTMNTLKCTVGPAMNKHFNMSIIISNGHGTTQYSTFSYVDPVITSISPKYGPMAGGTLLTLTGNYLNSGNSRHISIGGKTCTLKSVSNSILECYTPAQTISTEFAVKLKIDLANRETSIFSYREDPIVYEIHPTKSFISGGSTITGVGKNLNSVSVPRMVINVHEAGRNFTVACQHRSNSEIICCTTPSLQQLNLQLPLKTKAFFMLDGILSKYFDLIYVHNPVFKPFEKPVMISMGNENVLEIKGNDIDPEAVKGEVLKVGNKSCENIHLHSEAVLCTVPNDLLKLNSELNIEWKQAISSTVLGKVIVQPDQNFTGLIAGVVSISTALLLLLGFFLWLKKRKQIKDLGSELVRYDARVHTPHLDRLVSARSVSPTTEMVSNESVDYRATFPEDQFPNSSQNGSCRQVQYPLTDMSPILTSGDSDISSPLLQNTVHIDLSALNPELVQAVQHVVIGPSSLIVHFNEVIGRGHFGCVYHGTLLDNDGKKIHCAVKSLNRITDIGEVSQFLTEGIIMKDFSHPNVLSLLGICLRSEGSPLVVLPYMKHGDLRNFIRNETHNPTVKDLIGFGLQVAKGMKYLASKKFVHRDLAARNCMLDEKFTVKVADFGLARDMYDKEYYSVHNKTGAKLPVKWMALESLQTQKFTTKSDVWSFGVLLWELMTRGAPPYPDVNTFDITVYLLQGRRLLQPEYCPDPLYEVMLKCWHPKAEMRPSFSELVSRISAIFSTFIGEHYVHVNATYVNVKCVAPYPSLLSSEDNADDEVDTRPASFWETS
NEK6, sequence (Q9HC98 whole entry): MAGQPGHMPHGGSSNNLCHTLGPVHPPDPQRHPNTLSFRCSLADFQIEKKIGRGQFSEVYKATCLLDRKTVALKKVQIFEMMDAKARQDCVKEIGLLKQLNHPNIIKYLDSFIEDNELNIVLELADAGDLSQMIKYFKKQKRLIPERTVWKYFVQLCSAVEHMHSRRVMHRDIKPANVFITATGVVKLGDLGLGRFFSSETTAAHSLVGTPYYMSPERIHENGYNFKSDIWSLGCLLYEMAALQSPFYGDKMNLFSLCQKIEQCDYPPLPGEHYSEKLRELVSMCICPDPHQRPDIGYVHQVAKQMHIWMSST
CDK17/cyclin Y (PCTK2), sequence (Q00537 whole entry): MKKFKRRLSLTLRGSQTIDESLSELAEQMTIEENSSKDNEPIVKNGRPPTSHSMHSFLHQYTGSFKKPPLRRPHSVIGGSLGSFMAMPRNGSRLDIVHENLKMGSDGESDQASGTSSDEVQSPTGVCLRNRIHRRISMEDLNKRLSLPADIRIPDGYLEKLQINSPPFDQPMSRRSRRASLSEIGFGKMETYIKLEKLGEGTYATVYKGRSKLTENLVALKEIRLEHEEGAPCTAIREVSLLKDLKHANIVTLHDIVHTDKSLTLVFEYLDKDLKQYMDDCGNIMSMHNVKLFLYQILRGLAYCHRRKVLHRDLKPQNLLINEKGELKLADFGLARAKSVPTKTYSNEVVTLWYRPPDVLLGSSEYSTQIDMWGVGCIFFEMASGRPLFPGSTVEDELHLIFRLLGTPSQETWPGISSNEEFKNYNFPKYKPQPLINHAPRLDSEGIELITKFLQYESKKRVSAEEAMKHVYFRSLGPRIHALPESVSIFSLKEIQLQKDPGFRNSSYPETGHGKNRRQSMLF
CDK17/cyclin Y (PCTK2), sequence (Q8ND76 whole entry partner): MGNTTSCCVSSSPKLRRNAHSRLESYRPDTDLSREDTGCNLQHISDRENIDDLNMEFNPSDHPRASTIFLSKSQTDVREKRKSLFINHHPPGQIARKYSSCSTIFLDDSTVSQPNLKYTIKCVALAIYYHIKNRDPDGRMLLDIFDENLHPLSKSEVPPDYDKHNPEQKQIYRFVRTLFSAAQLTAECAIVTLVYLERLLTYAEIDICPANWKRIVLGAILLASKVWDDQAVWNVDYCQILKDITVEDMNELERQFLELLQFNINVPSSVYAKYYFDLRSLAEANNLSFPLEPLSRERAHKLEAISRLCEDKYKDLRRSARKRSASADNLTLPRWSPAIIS
c-Src, sequence (P12931 whole entry): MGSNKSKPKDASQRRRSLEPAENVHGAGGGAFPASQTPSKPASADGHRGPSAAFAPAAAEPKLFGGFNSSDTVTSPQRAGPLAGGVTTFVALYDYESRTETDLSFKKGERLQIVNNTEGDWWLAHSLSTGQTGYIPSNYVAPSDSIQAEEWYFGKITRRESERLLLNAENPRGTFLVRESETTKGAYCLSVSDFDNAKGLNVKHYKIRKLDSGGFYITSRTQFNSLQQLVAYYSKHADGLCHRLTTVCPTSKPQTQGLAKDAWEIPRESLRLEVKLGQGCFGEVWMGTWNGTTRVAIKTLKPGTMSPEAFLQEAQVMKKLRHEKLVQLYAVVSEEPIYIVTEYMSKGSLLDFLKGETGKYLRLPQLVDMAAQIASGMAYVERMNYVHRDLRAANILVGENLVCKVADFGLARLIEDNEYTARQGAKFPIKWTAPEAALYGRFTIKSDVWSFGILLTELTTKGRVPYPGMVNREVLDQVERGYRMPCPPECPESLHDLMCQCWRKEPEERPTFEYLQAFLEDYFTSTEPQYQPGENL
MSK2/RPS6KA4, sequence (O75676 whole entry): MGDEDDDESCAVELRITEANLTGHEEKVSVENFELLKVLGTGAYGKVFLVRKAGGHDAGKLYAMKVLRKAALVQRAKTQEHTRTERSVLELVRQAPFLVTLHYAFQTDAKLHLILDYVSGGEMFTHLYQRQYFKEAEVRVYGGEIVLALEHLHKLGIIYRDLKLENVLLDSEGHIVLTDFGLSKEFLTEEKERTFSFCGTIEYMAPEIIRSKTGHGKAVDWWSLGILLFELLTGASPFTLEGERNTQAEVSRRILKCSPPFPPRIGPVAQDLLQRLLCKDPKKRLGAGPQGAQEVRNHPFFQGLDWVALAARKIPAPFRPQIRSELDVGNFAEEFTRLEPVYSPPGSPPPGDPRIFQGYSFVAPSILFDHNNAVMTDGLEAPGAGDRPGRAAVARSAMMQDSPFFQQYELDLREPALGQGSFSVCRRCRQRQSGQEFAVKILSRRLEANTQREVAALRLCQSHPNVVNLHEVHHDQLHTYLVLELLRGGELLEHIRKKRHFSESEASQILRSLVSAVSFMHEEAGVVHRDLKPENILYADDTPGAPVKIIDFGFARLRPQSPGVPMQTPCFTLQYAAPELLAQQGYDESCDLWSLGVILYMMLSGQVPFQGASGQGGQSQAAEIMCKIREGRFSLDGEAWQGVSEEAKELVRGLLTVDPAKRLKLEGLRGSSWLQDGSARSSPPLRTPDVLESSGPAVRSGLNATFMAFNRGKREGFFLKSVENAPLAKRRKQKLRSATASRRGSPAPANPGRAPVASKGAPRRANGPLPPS

SMILES	remaining activity at 1 µM (CK1g2)	% enzyme activity (TBK1)	remaining activity at 1 µM (MEK1)	% enzyme activity (MST2/STK3)	% enzyme activity (NEK6)	% enzyme activity (ROCK1)	remaining activity at 1 µM (PHKg2)	remaining activity at 1 µM (MSK2/RPS6KA4)	remaining activity at 1 µM (c-MET)	remaining activity at 1 µM (PBK/TOPK)	CYP inhibition (CYP2D6)	remaining activity at 1 µM (PKCb1)	remaining activity at 1 µM (PAK6)	% enzyme activity (CDK17/cyclin Y (PCTK2))	remaining activity at 1 µM (FGR)	remaining activity at 1 µM (c-Src)	% enzyme activity (HIPK3)
COc1cc(-c2cncc(-c3ccc(N4C[C@@H](C)N(C)[C@@H](C)C4)cc3)c2C)cc(F)c1C(N)=O [Compound 26c, 2-Fluoro-6-methoxy-4-(4-methyl-5-(4-((3R,5S)-3,4,5-trimethylpiperazin-1-yl)phenyl)pyridin-3-yl)benzamide]	87%	85.62%	95.1%	100.46%	103.36%	92.61%	96.7%	95.4%	107%	103%	> 50 µM	85.3%	96.3%	99.91%	89.4%	100%	89.08%
COc1cc(-c2cncc(-c3ccc(N4CCN(C)CC4)cc3)c2C)cc(F)c1C(N)=O [Compound 26a, 2-Fluoro-6-methoxy-4-(4-methyl-5-(4-(4-methylpiperazin-1-yl)phenyl)pyridin-3-yl)benzamide]	78%	92.56%	97.5%	93.91%	98.81%	91.98%	94.9%	97.1%	100%	91.8%	> 50 µM	85.5%	102%	95.45%	83.1%	96.6%	97.73%
